The text below walks through data of patent US6204415A, “Triazole derivative or salt thereof, preparation process thereof and pharmaceutical containing said compound as an effective ingredient” (SSP Co., Ltd., priority 1997, dated 2001).

One experiment has as its system Candida albicans. The experiment in a line: Test 1: Action against Candida albicans (in vitro), suppression of mycelial type growth. It is filed as cell-based, Candida albicans ATCC 44859. Particulars: ATCC44859, C. albicans ATCC 44859, 10% fetal-bovine-serum added MEM, 37° C., 24 hours, CO2 incubator, read-out: Terminal point (minimum medicament concentration permitting the apparent suppression of mycerial type growth). The protocol:
Test 1: Action Against Candida albicans (in vitro)
The resulting mixture was incubated at 37° C. for 24 hours in a CO2 gas incubator. After incubation, a morphological change of C. albicans was observed under an inverted microscope. The minimum medicament concentration permitting the apparent suppression of mycerial type growth compared with that of a medicament-free control was designated as a terminal point (ng/ml).

The next experiment concerns Aspergillus fumigatus. In words: Test 2: Action against Aspergillus fumigatus (in vitro), MIC. It is filed as cell-based, Aspergillus fumigatus IFM 40808. Particulars: A. fumigatus IFM 40808, MOPS-containing RPMI 1640, pH 7, almar Blue, 35° C., 48 hours. The protocol:
Test 2: Action Against Aspergillus fumigatus (in vitro)
They were incubated at 35° C. for 48 hours. Judgment was made visually and the minimum medicament concentration not permitting a change into red (the medium maintained blue color) was designated as an MIC value (μg/ml).

The next experiment deals with C. albicans IFM 40009. In words: Test 3: Action against Candida albicans (in vivo), systemic infection in mice. Conditions: i.v. C. albicans 3.0×10^6 cells/mouse, oral 1.25 mg/kg each, four times; for Surviving mice on Day 14 (number of surviving mice/total number in group): Day 14, control 0/11; for Average Survival days: Kaplan-Meier method (Cox mantel test), control 4.5. The protocol:
Test 3: Action Against Candida albicans (in vivo)
After 4-week-old, male, ICR (CRJ: CD-1) mice were fasted for 6 hours, C. albicans IFM 40009 was inoculated to the tail vein of each of the mice to give an amount of 3.0×10^6 cells/mouse, whereby infection was caused. A control group consisted of 11 mice, while a medicament-administered group consisted of 5 mice. The medicament dissolved in 20% polyethylene glycol was orally administered 1 hour after the inoculation of the fungus and then consecutively once a day 24 hours after the inoculation, four times in total, at 1.25 mg/kg each. The survival condition on Day 14 after the infection was compared. In addition, the survival days of the control group and the medicament-administered group were detected by the Kaplan-Meier method (Cox mantel test). Incidentally, Fluconazole was employed as a medicament for comparison.

The MIC is the lowest concentration that inhibits growth of the organism. Read a low MIC as greater potency.

Structures are written as SMILES. Values after ≈ are worked out from the molar mass of the structure shown.

Take `CCS(=O)(=O)C(F)(F)C(O)(Cn1cncn1)c1ccc(F)cc1F` (racemic) [Example 15, 2-(2,4-difluorophenyl)-1-(ethylsulfonyl) -1,1-difluoro-3-(1H-1,2,4-triazole-1-yl)-2-propanol]: the minimal effective concentration in the experiment on Candida albicans came to 0.0313 µg/mL. This molecule had an MIC in the experiment with Aspergillus fumigatus of 8 mg/L (≈ 21.8 µM). In the experiment with C. albicans IFM 40009, the “Surviving mice on Day 14 (number of surviving mice/total number in group)” value is given as 4/5 and the “Average Survival days” value amounted to 14.00 days.

On to `CCS(=O)(=O)C(F)(F)C(O)(Cn1cncn1)c1ccc(F)cc1F` (single isomer, unassigned; (-)) [Example 21(2), (-)-2-(2,4-difluorophenyl)-1-(ethylsulfonyl)-1,1-difluoro-3-(1H-1,2,4-triazol-1-yl)-2-propanol], for which, in the experiment with Candida albicans, the minimal effective concentration worked out at 0.0156 µg/mL. The same molecule showed an MIC in the experiment with Aspergillus fumigatus of 4 mg/L (≈ 10.9 µM).

In the case of `CCS(=O)(=O)C(F)(F)C(O)(Cn1cncn1)c1ccc(F)cc1` (single isomer, unassigned; (-)) [Example 22(2), (-)-1-(Ethylsulfonyl)-1,1-difluoro-2-(4-fluorophenyl)-3-(1H-1,2,4-triazol-1-yl)-2-propanol], in the experiment with Candida albicans, the minimal effective concentration amounted to 0.0156 µg/mL. The molecule also returned an MIC against Aspergillus fumigatus of 8 mg/L (≈ 22.9 µM).

For the molecule `CCSC(F)(F)C(O)(Cn1cncn1)c1ccc(F)cc1F` (stereo not drawn) [Example 9, 2-(2,4-difluorophenyl)-1-(ethylthio)-1,1-difluoro-3-(1H-1,2,4-triazol-1-yl)-2-propanol], the minimal effective concentration in the experiment on Candida albicans was found to be 0.0078 µg/mL. In addition, the MIC against Aspergillus fumigatus amounted to 2 mg/L (≈ 5.96 µM).

As for `CCSC(F)(F)C(O)(Cn1cncn1)c1ccc(F)cc1` (stereo not drawn) [Example 10, 1-(ethylthio)-1,1-difluoro-2-(4-fluorophenyl)-3-(1H-1,2,4-triazol-1-yl)-2-propanol], the minimal effective concentration with Candida albicans came to 0.0313 µg/mL. The lowest concentration to inhibit growth with Aspergillus fumigatus (MIC) was 8 mg/L (≈ 25.2 µM).

Take `CCSC(F)(F)C(O)(Cn1cncn1)c1ccc(C(F)(F)F)cc1` (stereo not drawn) [Example 11, 1-(ethylthio)-1,1-difluoro-2-(4-trifluoromethylphenyl)-3-(1H-1,2,4-triazol-1-yl)-2-propanol]: the minimal effective concentration with Candida albicans was 0.0078 µg/mL. The MIC with Aspergillus fumigatus was determined as 16 mg/L (≈ 43.6 µM).

For the molecule `CCSC(F)(F)C(O)(Cn1cncn1)c1ccc(Cl)cc1Cl` (stereo not drawn) [Example 12, 2-(2,4-dichlorophenyl)-1-(ethylthio)-1,1-difluoro-3-(1H-1,2,4-triazol-1-yl)-2-propanol], the minimal effective concentration in the experiment with Candida albicans amounted to 0.0039 µg/mL. For the same molecule, the MIC in the experiment with Aspergillus fumigatus came to 1 mg/L (≈ 2.72 µM).

As for `CCSC(F)(F)C(Cn1cncn1)(OC)c1ccc(F)cc1F` (stereo not drawn) [Example 13, 1-[2-(2,4-difluorophenyl)-3-ethylthio-3,3-difluoro-2-methoxypropyl]-1H-1,2,4-triazole], in the experiment with Candida albicans, the minimal effective concentration amounted to 0.0313 µg/mL. The same molecule gave an MIC with Aspergillus fumigatus of 8 mg/L (≈ 22.9 µM).

In the case of `CCS(=O)(=O)C(F)(F)C(O)(Cn1cncn1)c1ccc(Cl)cc1Cl` (stereo not drawn) [Example 18, 2-(2,4-dichlorophenyl)-1-(ethylsulfonyl)-1,1-difluoro-3-(1H-1,2,4-triazol-1-yl)-2-propanol], the minimal effective concentration with Candida albicans is 0.0156 µg/mL. For the same molecule, the minimal inhibitory concentration (MIC) with Aspergillus fumigatus was 8 mg/L (≈ 20 µM).

With `OC(Cn1cncn1)(Cn1cncn1)c1ccc(F)cc1F` [Fluconazole, reference compound], the minimal effective concentration in the experiment on Candida albicans is 0.25 µg/mL. The molecule further returned an MIC in the experiment with Aspergillus fumigatus above 128 mg/L. In the experiment with C. albicans IFM 40009, the “Surviving mice on Day 14 (number of surviving mice/total number in group)” value is 1/5 and the “Average Survival days” value came to 11.0 days.
